The test deals with T1, human kinase Mps-1 (Homo sapiens, UniProt P33981).
T1 construct: N-terminally GST-tagged human full length recombinant Mps-1 kinase; GST (N); purchased Invitrogen, Karslruhe, Germany PV4071
T1 sequence (P33981 1-857): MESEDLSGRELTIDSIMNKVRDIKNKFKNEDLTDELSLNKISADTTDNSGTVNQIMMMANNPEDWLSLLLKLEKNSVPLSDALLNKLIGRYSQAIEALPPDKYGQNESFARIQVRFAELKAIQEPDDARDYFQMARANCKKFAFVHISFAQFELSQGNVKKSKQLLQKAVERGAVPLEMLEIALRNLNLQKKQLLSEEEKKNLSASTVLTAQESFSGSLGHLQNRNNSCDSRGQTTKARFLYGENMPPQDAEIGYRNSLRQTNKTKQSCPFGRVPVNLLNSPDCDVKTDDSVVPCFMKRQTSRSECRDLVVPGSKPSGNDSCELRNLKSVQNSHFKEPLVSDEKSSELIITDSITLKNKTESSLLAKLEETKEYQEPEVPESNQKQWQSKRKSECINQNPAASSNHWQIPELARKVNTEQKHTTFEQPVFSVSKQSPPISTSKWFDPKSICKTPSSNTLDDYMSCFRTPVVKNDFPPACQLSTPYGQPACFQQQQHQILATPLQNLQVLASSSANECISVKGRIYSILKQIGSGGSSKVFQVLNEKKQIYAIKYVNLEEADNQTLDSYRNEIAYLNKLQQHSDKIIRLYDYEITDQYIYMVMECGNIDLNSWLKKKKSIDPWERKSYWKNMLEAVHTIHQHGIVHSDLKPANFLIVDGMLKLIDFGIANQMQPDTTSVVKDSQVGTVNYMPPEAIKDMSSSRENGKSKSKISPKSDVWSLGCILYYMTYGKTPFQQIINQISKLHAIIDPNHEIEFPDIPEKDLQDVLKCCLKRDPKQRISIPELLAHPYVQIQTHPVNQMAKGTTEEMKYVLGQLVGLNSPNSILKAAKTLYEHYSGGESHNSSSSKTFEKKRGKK
The test can be described thus: Mps-1 kinase assay (TR-FRET). Format: biochemical. The conditions noted are these: N-terminally GST-tagged human full length recombinant Mps-1; 10 μM ATP; 1 μM peptide substrate; 60 min at 22° C. In short, it runs like this:
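GST-tagged full-length recombinant Mps-1 at about 1 nM final, adjusted per lot for linear range, phosphorylated a biotinylated peptide. Product bound Eu-anti-phospho(Ser/Thr) antibody over 1 h at 22° C and was read by TR-FRET to streptavidin-XLent. Compounds scored for kinase inhibition.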
In general terms: In TR-FRET formats the signal depends on donor and acceptor labels being close together.

The IC50 is the point on the concentration scale where inhibition reaches its midpoint.

For `C#Cc1cc(NCCC(F)(F)F)c2ncc(-c3ccc(C(=O)N[C@@H]4C[C@H]4F)c(C)c3)n2c1` (relative stereo) [Example 16, 4-{6-ethynyl-8-[(3,3,3-trifluoropropyl)amino]imidazo[1,2-a]pyridin-3-yl}-N-[rel-(1R,2R)-2-fluorocyclopropyl]-2-methylbenzamide], the IC50 was determined as 29.4 nM.
As for `Cc1cc(-c2cnc3c(NCCC(F)(F)F)cc(Oc4cccc(F)c4)cn23)ccc1C(=O)N[C@@H]1C[C@H]1C` (relative stereo) [Example 48, Rel-4-{6-(3-fluorophenoxy)-8-[(3,3,3-trifluoropropyl)amino]imidazo[1,2-a]pyridin-3-yl}-2-methyl-N-[(1R,2R)-2-methylcyclopropyl]benzamide], the IC50 was 2.1 nM.
Then `Cc1cc(-c2cnc3c(NCCC(F)(F)F)cc(Oc4cccc(Cl)c4)cn23)ccc1C(=O)NC1CC1F` (single isomer, unassigned) [Example 39 (ent.-A or A), 4-{6-(3-chlorophenoxy)-8-[(3,3,3-trifluoropropyl)amino]imidazo[1,2-a]pyridin-3-yl}-N-{[1R,2R) or (1S,2S)]-2-fluorocyclopropyl}-2-methylbenzamide], with 4.9 nM; and `Cc1cc(-c2cnc3c(NCCC(F)(F)F)cc(C#CCO)cn23)ccc1C(=O)NC1(C)CC1` [Example 22, 4-{6-(3-hydroxyprop-1-yn-1-yl)-8-[(3,3,3-trifluoropropyl)amino]imidazo[1,2-a]pyridin-3-yl}-2-methyl-N-(1-methylcyclopropyl)benzamide], with 50 nM; and “tert-butyl {3-[4-(cyclopropylcarbamoyl)-3-methylphenyl]-6-(2-hydroxybenzoyl)imidazo[1,2-a]pyridin-8-yl}(2,2-difluoroethyl)carbamate [Example 168]”, with 279 nM.
`Cc1cc(-c2cnc3c(NCCC(F)(F)F)cc(Oc4ccc(OCc5ccccc5)cc4)cn23)ccc1C(=O)NC1CC1` [Example 109, 4-{6-[4-(benzyloxy)phenoxy]-8-[(3,3,3-trifluoropropyl)amino]imidazo[1,2-a]pyridin-3-yl}-N-cyclopropyl-2-methylbenzamide]: the IC50 is 17.8 nM.
As to `COc1ccc(Oc2cc(NCCC(F)(F)F)c3ncc(-c4ccc(C(=O)N[C@H]5C[C@@H]5F)c(C)c4)n3c2)cc1F` (relative stereo) [Example 124, N-[rel-(1S,2S)-2-fluorocyclopropyl]-4-{6-(3-fluoro-4-methoxyphenoxy)-8-[(3,3,3-trifluoropropyl)amino]imidazo[1,2-a]pyridin-3-yl}-2-methylbenzamide], the IC50 is 0.7 nM.
For `Cc1cc(-c2cnc3c(NCCC(F)(F)F)cc(Oc4cccc(F)c4O)cn23)ccc1C(=O)NC1CC1` [Example 176, N-cyclopropyl-4-{6-(3-fluoro-2-hydroxyphenoxy)-8-[(3,3,3-trifluoropropyl)amino]imidazo[1,2-a]pyridin-3-yl}-2-methylbenzamide], the IC50 stood at 1.8 nM.
As for `CNC(=O)c1ccc(-c2cnc3c(NCCC(F)(F)F)cc(Oc4cccc(OC)c4)cn23)cc1C` [Example 55, 4-{6-(3-Methoxyphenoxy)-8-[(3,3,3-trifluoropropyl)amino]imidazo[1,2-a]pyridin-3-yl}-N,2-dimethylbenzamide], the half-inhibitory concentration (IC50) came out at 2.9 nM.
In the case of `Cc1ccc(F)cc1Oc1cc(NCCC(F)(F)F)c2ncc(-c3ccc(C(=O)NC4CC4)c(C)c3)n2c1` [Example 19, N-cyclopropyl-4-{6-(5-fluoro-2-methylphenoxy)-8-[(3,3,3-trifluoropropyl)amino]imidazo[1,2-a]pyridin-3-yl}-2-methylbenzamide], the IC50 is 0.7 nM.
In the case of `CCc1cc(NCCC(F)(F)F)c2ncc(-c3ccc(C(=O)NC4(C)CC4)c(C)c3)n2c1` [Example 102, 4-{6-Ethyl-8-[(3,3,3-trifluoropropyl)amino]imidazo[1,2-a]pyridin-3-yl}-2-methyl-N-(1-methylcyclopropyl)benzamide], the half-inhibitory concentration (IC50) was 131 nM.
The value for `Cc1cc(-c2cc(NCCC(F)(F)F)c3ncc(-c4ccc(C(=O)NC5CC5)c(C)c4)n3c2)ccc1C(N)=O` [Example 153, 4-{6-(4-carbamoyl-3-methylphenyl)-8-[(3,3,3-trifluoropropyl)amino]imidazo[1,2-a]pyridin-3-yl}-N-cyclopropyl-2-methylbenzamide] was 0.5 nM; that for `Cc1cc(-c2cnc3c(NCCC(F)(F)F)cc(Oc4ccccc4)cn23)ccc1C(=O)NC1CC1` [Example 33, N-cyclopropyl-2-methyl-4-{6-phenoxy-8-[(3,3,3-trifluoropropyl)amino]imidazo[1,2-a]pyridin-3-yl}benzamide] was 0.7 nM; that for `CCc1cc(NCCC(F)(F)F)c2ncc(-c3ccc(C(=O)NC4CC4)c(C)c3)n2c1` [Example 99] was 13.3 nM.
In the case of `COCCNc1cc(Oc2cc(F)ccc2C)cn2c(-c3ccc(C(=O)NC4CC4)c(C)c3)cnc12` [Example 172], the IC50 came out at 77.8 nM.
With `C=Cc1cc(NCCC(F)(F)F)c2ncc(-c3ccc(C(=O)NC)c(C)c3)n2c1` [Example 93, N,2-dimethyl-4-{8-[(3,3,3-trifluoropropyl)amino]-6-vinylimidazo[1,2-a]pyridin-3-yl}benzamide], the half-inhibitory concentration (IC50) was 68.6 nM.
With `CCNC(=O)c1ccc(-c2cnc3c(NCCC(F)(F)F)cc(-c4ccncc4)cn23)cc1C` [Example 89, N-ethyl-2-methyl-4-{6-(pyridin-4-yl)-8-[(3,3,3-trifluoropropyl)amino]imidazo[1,2-a]pyridin-3-yl}benzamide], the IC50 is 6.9 nM.
With `CNC(=O)c1ccc(-c2cnc3c(NCC4CCOCC4)cc(Oc4ccc(OC)c(F)c4)cn23)cc1C` [Example 121, 4-{6-(3-Fluoro-4-methoxyphenoxy)-8-[(tetrahydro-2H-pyran-4-ylmethyl)amino]imidazo[1,2-a]pyridin-3-yl}-N,2-dimethylbenzamide], the concentration for half-maximal inhibition (IC50) stood at 1.5 nM.
Then `Cc1cc(-c2cnc3c(NCCC(F)(F)F)cc(Sc4cccc(F)c4F)cn23)ccc1C(=O)NC1CC1` [Example 3-2, N-cyclopropyl-4-{6-[(2,3-difluorophenyl)sulfanyl]-8-[(3,3,3-trifluoropropyl)amino]imidazo[1,2-a]pyridin-3-yl}-2-methylbenzamide], with 0.3 nM; and `Cc1cc(-c2cc(NCCC(F)(F)F)c3ncc(-c4ccc(C(=O)NC5CC5)c(C)c4)n3c2)ccc1C(=O)NC1CC1` [Example 32, 4,4′-{8-[(3,3,3-trifluoropropyl)amino]imidazo[1,2-a]pyridine-3,6-diyl}bis(N-cyclopropyl-2-methylbenzamide)], with 0.9 nM.
Consider `Cc1cc(-c2cnc3c(NCCC(F)(F)F)cc(Oc4ccc(OC(F)(F)F)c(F)c4)cn23)ccc1C(=O)NC1(C#N)CC1` [Example 84, N-(1-cyanocyclopropyl)-4-{6-[3-fluoro-4-(trifluoromethoxy)phencow]-8-[(3,3,3-trifluoropropyl)amino]imidazo[1,2-a]pyridin-3-yl}-2-methylbenzamide], for which the IC50 is 243 nM.
`COc1c(F)cccc1Oc1cc(NCCC(F)(F)F)c2ncc(-c3ccc(C(=O)NC4CC4)c(C)c3)n2c1` [Example 146, N-cyclopropyl-4-{6-(3-fluoro-2-methoxyphenoxy)-8-[(3,3,3-trifluoropropyl)amino]imidazo[1,2-a]pyridin-3-yl}-2-methylbenzamide]: the concentration for half-maximal inhibition (IC50) was 3.2 nM.
`Cc1cc(-c2cnc3c(NCCC(F)(F)F)cc(Oc4cccc(F)c4)cn23)ccc1C(=O)NC1(CO)CC1` [Example 50, 4-{6-(3-Fluorophenoxy)-8-[(3,3,3-trifluoropropyl)amino]imidazo[1,2-a]pyridin-3-yl}-N-[1-(hydroxymethyl)cyclopropyl]-2-methylbenzamide]: the IC50 is 7.3 nM.
With `Cc1cc(-c2cnc3c(NCCC(F)(F)F)cc(Oc4cccc(OC(F)(F)F)c4)cn23)ccc1C(=O)NC1(C#N)CC1` [Example 75, N-(1-cyanocyclopropyl)-2-methyl-4-{6-[3-(trifluoromethoxy)phenoxy]-8-[(3,3,3-trifluoropropyl)amino]imidazo[1,2-a]pyridin-3-yl}benzamide], the concentration for half-maximal inhibition (IC50) was 157 nM.
The value for `CNC(=O)c1ccc(-c2cnc3c(NCCC(F)(F)F)cc(Oc4ccc(OC(F)(F)F)c(F)c4)cn23)cc1C` [Example 86, 4-{6-[3-Fluoro-4-(trifluoromethoxy)phenoxy]-8-[(3,3,3-trifluoropropyl)amino]imidazo[1,2-a]pyridin-3-yl}-N,2-dimethylbenzamide] was 56.7 nM; that for `COCCNc1cc(Oc2cccc(F)c2)cn2c(-c3ccc(C(=O)NC4CC4)c(C)c3)cnc12` [Example 169, N-cyclopropyl-4-{6-(3-fluorophenoxy)-8-[(2-methoxyethyl)amino]imidazo[1,2-a]pyridin-3-yl}-2-methylbenzamide] was 21.7 nM.

Values taken from patent US20140255392A1 (BAYER INTELLECTUAL PROPERTY GMBH, priority 2011, published 2014).
